From patent US9957569B2, “Recurrent gene fusions in prostate cancer” (THE REGENTS OF THE UNIVERSITY OF MICHIGAN, priority 2005, dated 2018)

What was measured:
[1] = test system: ERG; test: In vitro androgen responsiveness: ERG expression by QPCR after R1881; format: cell-based, human; conditions: 1 nM R1881, 24 h; for increase in expression of ERG compared to untreated controls: QPCR ERG/GAPDH; for expression of ERG after R1881 treatment compared to untreated controls: QPCR
Description: Quantitative PCR (QPCR) was performed using SYBR Green dye on an Applied Biosystems 7300 Real Time PCR system essentially as described (Chinnaiyan et al., Cancer Res 65, 3328 (2005); Rubin et al., Cancer Res 64, 3814 (2004)). Briefly, 1-5 μg of total RNA was reverse transcribed into cDNA using SuperScript III (Invitrogen) in the presence of random primers or random primers and oligo dT primers. All reactions were performed with SYBR Green Master Mix (Applied Biosystems) and 25 ng of both the forward and reverse primer using the manufacturer's recommended thermocycling conditions. All reactions were subjected to melt curve analysis and products from selected experiments were resolved by electrophoreses on 1.5% agarose gels. For each experiment, threshold levels were set during the exponential phase of the QPCR reaction using Sequence Detection Software version 1.2.2 (Applied Biosystems). The amount of each target gene relative to the housekeeping gene glyceraldehyde-3-phosphate dehydrogenase (GAPDH) for each sample was determined using the comparative threshold cycle (Ct) method (Applied Biosystems User Bulletin #2), with the cDNA sample serving as the calibrator for each experiment described in the figure legend. All oligonucleotide primers were synthesized by Integrated DNA Technologies. GAPDH primers were as described (Vandesompele et al., Genome Biol 3, RESEARCH0034 (2002)) and all other primers are listed (Table 4).
RWPE, LNCaP, VCap DuCaP, PC3 and PC3 cells stably transfected with the human androgen receptor (PC3+AR) (3) were treated for 24 h with 1% ethanol control or 1 nM of the synthetic androgen R1881. Total RNA was isolated and subjected to reverse transcription and QPCR as described above with ERG exon 5-6_f and _r primers. The relative amount of ERG/GAPDH for each sample was calibrated to the RWPE control sample.

[2] = test system: LNCaP prostate cancer cell line; test: Androgen stimulation of LNCaP cells, qPCR of endogenous 5′ fusion partner genes; format: cell-based, human; conditions: 1 nM R1881, 24 h
Description: For androgen stimulation experiments, LNCaP cells were grown in charcoal-stripped serum containing media for 24 hours before treatment for 24 hours with 1% ethanol or 1 nM of methyltrienolone (R1881, NEN Life Science Products, Boston, Mass.) dissolved in ethanol.
Quantitative PCR (QPCR) was performed using Power SYBR Green Mastermix (Applied Biosystems, Foster City, Calif.) on an Applied Biosystems 7300 Real Time PCR system as described (Tomlins et al., Cancer Res 66, 3396-400 (2006); Tomlins et al., Recurrent fusion of TMPRSS2 and ETS transcription factor genes in prostate cancer. Science 310, 644-8 (2005)). HMBS and GAPDH5, and PSA6 primers were as described. Androgen stimulation reactions were performed in quadruplicate, all other reactions were performed in duplicate.

[3] = test system: LNCaP prostate cancer cell line; test: Androgen stimulation time course of LNCaP cells, Q-PCR of FLJ35294, CANT1 and DDX5 transcripts; format: cell-based, human
Description: Q-PCR was carried out according to standard protocols.
Samples were normalized by the mRNA level of the housekeeping gene GAPDH. Androgen stimulation reactions were performed in triplicate, and all other reactions were performed in duplicate. RNA Ligase Mediated Rapid Amplification of cDNA Ends (RLM-RACE)

[4] = test system: ERG; test: Androgen regulation of Erg expression in LNCap and VCaP cells; format: cell-based, human; conditions: VCaP (TMPRSS2-ERG+), varying amounts of R1881, 48 hrs
Description: This Example describes the androgen regulation of Erg expression. LNCap (TMPRSS2-ERG-) and VCaP (TMPRSS2-ERG+) cell lines were used. The cells were contacted with varying amounts of R1881 for 48 hrs. Expression of Erg, PSA (+control) and beta-tubulin (−control) were assayed.

[5] = test system: VCaP and LNCaP prostate cancer cell lines; test: QPCR of PSA and ETV1 in VCaP and LNCaP cells treated with R1881; format: cell-based, human
[6] = target: androgen receptor (AR) (Homo sapiens, UniProt P10275, T878A); conditions: LNCaP
androgen receptor (AR), sequence (P10275 whole entry T878A): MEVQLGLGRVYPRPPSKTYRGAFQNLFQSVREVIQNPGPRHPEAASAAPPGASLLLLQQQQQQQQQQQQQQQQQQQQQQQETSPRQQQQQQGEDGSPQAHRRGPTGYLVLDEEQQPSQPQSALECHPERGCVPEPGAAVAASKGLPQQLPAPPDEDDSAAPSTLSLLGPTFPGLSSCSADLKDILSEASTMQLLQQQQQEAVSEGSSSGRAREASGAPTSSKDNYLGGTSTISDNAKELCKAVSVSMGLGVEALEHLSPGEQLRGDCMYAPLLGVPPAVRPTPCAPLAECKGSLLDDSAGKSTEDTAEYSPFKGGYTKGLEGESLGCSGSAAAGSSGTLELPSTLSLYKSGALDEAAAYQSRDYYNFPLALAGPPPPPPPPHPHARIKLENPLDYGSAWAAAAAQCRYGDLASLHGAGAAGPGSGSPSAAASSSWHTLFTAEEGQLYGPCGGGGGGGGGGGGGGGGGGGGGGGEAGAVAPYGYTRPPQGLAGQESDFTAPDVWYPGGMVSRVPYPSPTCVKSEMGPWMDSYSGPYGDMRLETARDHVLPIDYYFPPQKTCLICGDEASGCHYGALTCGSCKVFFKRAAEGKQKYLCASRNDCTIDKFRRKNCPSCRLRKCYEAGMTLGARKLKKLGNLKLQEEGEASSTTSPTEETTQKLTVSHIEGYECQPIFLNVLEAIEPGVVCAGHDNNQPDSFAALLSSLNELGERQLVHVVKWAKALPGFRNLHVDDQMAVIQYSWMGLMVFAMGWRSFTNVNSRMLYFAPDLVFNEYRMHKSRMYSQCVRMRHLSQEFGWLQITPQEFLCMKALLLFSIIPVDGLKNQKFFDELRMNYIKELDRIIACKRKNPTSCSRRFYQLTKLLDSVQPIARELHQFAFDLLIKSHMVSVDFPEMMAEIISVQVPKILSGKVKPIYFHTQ
Description: LNCaP, an androgen sensitive prostate cancer cell line, was maintained in RPMI with 10% FBS. For androgen stimulation experiments, cells were placed for two days in phenol red-free RPMI, supplemented with 5% of charcoal-treated FCS before being treated with 1% ethanol or 10 nM R1881 for the following time points 0, 3, 12, 24, and 48 hours. Cells were treated for 16 hours with androgen and crosslinked for chromatin immunoprecipitation (ChIP) analysis.
The input whole-cell extract DNA and the ChIP-enriched DNA were amplified by ligation-mediated PCR, and subjected to qPCR assessment of target promoters. ChIP enrichment was evaluated as a percentage of input DNA.

SMILES: C[C@]1(O)CC[C@H]2[C@@H]3CCC4=CC(=O)CCC4=C3C=C[C@@]21C [R1881, methyltrienolone]
- increase in expression of ERG compared to untreated controls ([1]; DuCaP cells): 2.57 fold
- expression of ERG after R1881 treatment compared to untreated controls ([1]; LnCaP cells): 0.86 fold
- expression of ERG after R1881 treatment compared to untreated controls ([1]; PC3 cells expressing the androgen receptor): 0.73 fold
- expression of ERG after R1881 treatment compared to untreated controls ([1]; PC3 cells): 1.28 fold
- expression of ERG after R1881 treatment compared to untreated controls ([1]; RWPE cells): 1.37 fold
- increase in expression of ERG compared to untreated controls ([1]; VCaP cells): 5.02 fold
- decrease in expression of C15ORF21 ([2]; P=0.0012): 1.9 fold
- change in expression of HNRPA2B1 (not significantly changed) ([2]; P=0.29): 1.17 fold
- increase in endogenous expression of HERV-K_22q11.23 ([2]; P=2.4E-4): 7.8 fold
- increase in endogenous expression of SLC45A3 ([2]; P=6.5E-4): 21.6 fold
- increase in endogenous expression of TMPRSS2 ([2]; P=9.95E-7): 14.8 fold
- expression of DDX5 on R1881 stimulation ([3]; 10 nM R1881, Q-PCR): not affected
- induction of expression of endogenous CANT1 ([3]; 10 nM R1881, at 24 hours, Q-PCR, P=0.0014): 3.8 fold
- induction of expression of endogenous FL35294 ([3]; 10 nM R1881, at 48 hours, Q-PCR, P=0.0006): 11.6 fold
- ERG expression, androgen dependence [4]: androgen dependent
- ETV1 expression by QPCR ([5]; LNCaP cells, 1 nM R1881, 48 hours): induction
- ETV1 expression ([5]; androgen-responsive VCaP cell line): does not induce
- PSA expression by QPCR (normalized to GAPDH) ([5]; both VCaP and LNCaP cells, 1 nM R1881, 48 hours): induction
- AR recruitment to the promoter region of DDX5 (ChIP) ([6]; 16 hours after R1881): not recruited
- AR occupancy of the promoter region of CANT1 (ChIP enrichment) ([6]; 16 hours after R1881, P=0.0014): 40 fold
- AR occupancy of the promoter region of FL35294 (ChIP enrichment) ([6]; 16 hours after R1881, P=0.005): 9 fold
